From patent publication US5043179A, “Triol triester derivatives as low calorie fat mimetics” (Nabisco Brands, Inc., priority 1990, dated 1991)

What was measured:
[1] = in vitro digestibility screen using pancreatic lipase (TLC analysis); type: in vitro ADME, porcine; conditions: pig, two-hour incubation, 37° C., pH 7.1, TLC, read-out: hydrolyzed by pancreatic lipase
Method: This example outlines the procedure for screening the in vitro digestibility of the triester derivatives of this invention using pancreatic lipase.
(§1) 1. Buffer: A pH 7.1 phosphate buffer is prepared by dissolving 6.8 g. KH2 PO4 in 1 L. of millipore filtered water (to yield 0.05 M phosphate). Fifty mg. Ca(NO3)2 and 5.0 g. cholic acid (Na^+ salt, an ox bile isolate from Sigma) are added to give 0.3 mM Ca++ and 0.5% cholic acid in 0.05 M phosphate. The pH is adjusted to approximately 7.1 with solid NaOH. Several drops of Baker "Resi-analyzed " toluene are added to prevent bacterial growth during storage at 3°-5° C.
(§2) 2. Lipase: About 15 mg/mL commercial porcine pancreatic lipase from U.S. Biochemical Corporation is dissolved in buffer.
3. Substrates and Standards: A 1.0 mL volumetric flask is charged with an amount of lipid substrate (test substance or standard) calculated to give a concentration of 200 nanomoles per microliter in Baker "Resi-analyzed " toluene. (The proper concentration may be approximated by doubling the molecular weight of the lipid in question, dividing by 10, and diluting to the mark; this yields about 200 nanomoles per microliter.) This preparation affords the substrate to be used in the hydrolysis reactions. […]

[2] = caloric availability by in vivo animal feeding study (body weight gain); set-up: species or system Sprague-Dawley rats; conditions: rats, diet of 50% fort and 21% test compound, 14 days
Text: This example illustrates how the triol triesters of this invention are screened for caloric availability by a carefully controlled in vivo animal feeding study.
An experimental relationship between total calories ingested and animal body weight gain is established by monitoring the body weight gain associated with consumption of a nutritionally balanced diet containing varying concentrations of a reference substance such as corn oil which has a known caloric availability. Correlations between total calories ingested and body weight gain are excellent (r=0.99).
Caloric availability of an unknown substance is evaluated by substituting a specific weight of the unknown substance for the reference substance and observing the body weight gain. The gain in body weight is equated to a total number of calories using the correlation previously established for the reference data. The estimated number of calories ingested are divided by the weight of unknown substance to give the apparent calories per gram for the unknown substance. Generally speaking, in these bioavailability studies, the degree of perianal pelt soiling correlates with reduced bioavailability.
The test animals are six-week-old male Sprague-Dawley rats obtained from the Portage, Michigan facility of the Charles River Laboratories, Inc. After acclimation for 15 days, the test duration is 14 days. […]

[3] = lipase assay as in Example 7, with super fluid chromatography to separate hydrolysis products; type: in vitro ADME, porcine; conditions: pig, pancreatic lipase, pH 7.1, one hour incubation, read-out: hydrolyzed by pancreatic lipase
Method: as §1, §2
(§3) 3. Substrates and Standards: A 1.0 mL volumetric flask is charged with an amount of lipid substrate (test substance or standard) calculated to give a concentration of 200 nanomoles per microliter in Baker "Resi-analyzed " toluene. (The proper concentration may be approximated by doubling the molecular weight of the lipid in question, dividing by 10, and diluting to the mark; this yields about 200 nanomoles per microliter.) This preparation affords the substrate to be used in the hydrolysis reactions.
(§4) In a 25 mL Erlenmeyer, emulsify 20 mL buffer and 40 microliters of substrate using an ultrasonic disrupter at a microtip maximum setting for approximately 10 seconds. […] Place in a 37° C. water bath and stir vigorously. After temperature equilibration, add 40 microliters of enzyme solution and start timing. […]

nonspecific lipase = conditions: pancreatic lipase inhibited by taurocholate; cited from earlier work
[4] = cited from earlier work
[5] = fed to rats; cited from earlier work
pancreatic lipase = experiment: lipase assay as in Example 7, with super fluid chromatography to separate hydrolysis products; type: in vitro ADME, porcine; conditions: one hour incubation
Method: as §1, §2, §3, §4

Row | SMILES | hydrolysis by nonspecific lipase (nonspecific lipase) | absorption in fat balance study [5] | further results
1 | CCCCCCCC/C=C\CCCCCCCC(=O)OCCC(COC(=O)CCCCCCC/C=C\CCCCCCCC)OC(=O)CCCCCCC/C=C\CCCCCCCC (stereo not shown) [Example 4, 1,2,4-Butane trioleate] |  |  | metabolised at 2 h [1]: ~50%; caloric availability (kcal/gram yielded upon being metabolized) [2]: about 7.7 kcal/gram
2 | CCCCCCCCCCCCCC(=O)OCCCCC(COC(=O)CCCCCCCCCCCCC)OC(=O)CCCCCCCCCCCCC (stereo not shown) [Example 5, 1,2,6-hexane trimyristate] |  |  | metabolised at 1 h [3]: ~20%
3 | CCCCCCCC/C=C\CCCCCCCC(=O)OC[C@H](OC(=O)CCCCCCC/C=C\CCCCCCCC)[C@@H](COC(=O)CCCCCCC/C=C\CCCCCCCC)OC(=O)CCCCCCC/C=C\CCCCCCCC [erythritol tetraoleate] | stepwise hydrolysis | absorbability decreased | hydrolysis in vivo (free tagged erythritol in urine) ([4]; rats): hydrolyzed in vivo; rate of appearance of fatty acids in the lymph ([4]; thoracic duct cannulated rats): slower rate than glycerol trioleate
4 | CCCCCCCC/C=C\CCCCCCCC(=O)OCCOC(=O)CCCCCCC/C=C\CCCCCCCC [ethylene glycol dioleate] | hydrolyze | absorbed | 
5 | CCCCCCCC/C=C\CCCCCCCC(=O)OC [methyl oleate] | hydrolyze | absorbed | 
6 | CCCCCCCC/C=C\CCCCCCCC(=O)OCC(COC(=O)CCCCCCC/C=C\CCCCCCCC)(COC(=O)CCCCCCC/C=C\CCCCCCCC)COC(=O)CCCCCCC/C=C\CCCCCCCC [pentaerythritol tetraoleate] |  | absorbability decreased | 
7 | CCCCCCCC/C=C\CCCCCCCC(=O)OC[C@H](OC(=O)CCCCCCC/C=C\CCCCCCCC)[C@@H](OC(=O)CCCCCCC/C=C\CCCCCCCC)[C@H](OC(=O)CCCCCCC/C=C\CCCCCCCC)[C@@H](COC(=O)CCCCCCC/C=C\CCCCCCCC)OC(=O)CCCCCCC/C=C\CCCCCCCC [sorbitol hexaoleate] |  | not absorbed | 
8 | CCCCCCCC/C=C\CCCCCCCC(=O)OC[C@H]1O[C@@](COC(=O)CCCCCCC/C=C\CCCCCCCC)(O[C@H]2O[C@H](COC(=O)CCCCCCC/C=C\CCCCCCCC)[C@@H](OC(=O)CCCCCCC/C=C\CCCCCCCC)[C@H](OC(=O)CCCCCCC/C=C\CCCCCCCC)[C@H]2OC(=O)CCCCCCC/C=C\CCCCCCCC)[C@@H](OC(=O)CCCCCCC/C=C\CCCCCCCC)[C@@H]1OC(=O)CCCCCCC/C=C\CCCCCCCC [sucrose octaoleate] |  | not absorbed | 
9 | CCCCCCCCCCCCCC(=O)OCC(COC(=O)CCCCCCCCCCCCC)OC(=O)CCCCCCCCCCCCC [trimyristin] |  |  | hydrolysis by pancreatic lipase (in words) (pancreatic lipase): almost fully hydrolyzed
10 | CCCCCCCC/C=C\CCCCCCCC(=O)OCC(COC(=O)CCCCCCC/C=C\CCCCCCCC)OC(=O)CCCCCCC/C=C\CCCCCCCC [triolein] | hydrolyze | absorbed | metabolised at 2 h [1]: ~90%
11 | CCCCCCCC/C=C\CCCCCCCC(=O)OC[C@H](OC(=O)CCCCCCC/C=C\CCCCCCCC)[C@@H](OC(=O)CCCCCCC/C=C\CCCCCCCC)[C@@H](COC(=O)CCCCCCC/C=C\CCCCCCCC)OC(=O)CCCCCCC/C=C\CCCCCCCC [xylitol pentaoleate] |  | absorbability decreased | 
